Experimental findings from patent publication US20240325544A1, “CATIONIC LIPID FOR COVALENT MODIFICATION OF PEPTIDES” (PharmalN Corporation, priority 2023, published 2024) are described below.

Where two headings read alike, the source gives them in different places. Marks after values point to notes of the source that are not given here. Bridge positions count the residues as written; N and C are the ends. Square brackets hold non-standard residues; d marks the D form. Peptide text beside a SMILES is read from it. * marks the point of attachment. C18 diacid = O=C(O)CCCCCCCCCCCCCCCCC(=O)*; Palmitoyl = CCCCCCCCCCCCCCCC(=O)*; Dab = NCC[C@H](N)C(=O)O; Dap = NC[C@H](N)C(=O)O; AEEA = NCCOCCOCC(=O)O; GABA = NCCCC(=O)O

Data set [1] in a line: Plasma concentration of respective natriuretic peptide by ELISA after SC bolus in CD-1 mice (pharmacokinetics, Table 3). The following applies: male, CD-1, mouse, in vivo. Here is the method:
(§1) The test articles were formulated or dissolved in sterile water for injection on the same day of administration. […] Blood samples were collected via retro-orbital bleed at 2- and 6-hours post-injection, with two bleedings per animal at two different timepoints. The samples were collected in K2EDTA tubes, processed by centrifugation (2000×g; 15 m 4 eC within 30 minutes after collection), and the resulting plasma samples were stored at −80° C. Biochemical analysis: The plasma concentration of the respective natriuretic peptide was analyzed using commercially available ELISA kits from Phoenix Pharmaceuticals (Burlingame, CA): ANP ELISA (cat #EKE-005-06), BNP ELISA (cat #EKE-011-03), and CNP ELISA (cat #EKE-012-03). […] Plasma cGMP was analyzed using a commercially available kit from Abcam (ab133052, Waltham, MA).
Background: An ELISA detects its analyte on a solid surface through an enzyme-linked reagent.

The next data set concerns cGMP. The data set can be described thus: Plasma cGMP after SC bolus of natriuretic peptides in CD-1 mice (pharmacodynamics, Table 3). It is filed as in vivo. The following applies: SC bolus 1.0 mg/kg (≤0.45 μmol/kg), baseline 10 +/−8 pmol/ml, n = 3-5. Here is the method:
as §1

[2] abbreviates: mice, SC bolus 1.0 mg/kg (≤0.45 μmol/kg), 2 hr, ELISA, n = 3-5, read-out: Plasma concentration of respective Natriuretic Peptide, ANP, BNP, or CNP, 2 hr.
Where [3] appears, read: mice, SC bolus 1.0 mg/kg (≤0.45 μmol/kg), 6 hr, ELISA, n = 3-5, read-out: Plasma concentration of respective Natriuretic Peptide, ANP, BNP, or CNP, 6 hr.

For the molecule `CC[C@H](C)[C@@H]1NC(=O)[C@H](CCCNC(=N)N)NC(=O)[C@H](CC(=O)O)NC(=O)[C@H](CC(C)C)NC(=O)[C@H](CCCCN)NC(=O)[C@H](CC(C)C)NC(=O)CNC(=O)[C@H](Cc2ccccc2)NC(=O)[C@@H](NC(=O)CNC(=O)[C@H](CCCCN)NC(=O)[C@H](CO)NC(=O)[C@H](CC(C)C)NC(=O)CN)CSSC[C@@H](C(=O)O)NC(=O)CNC(=O)[C@H](CC(C)C)NC(=O)CNC(=O)[C@H](CO)NC(=O)[C@H](CCSC)NC(=O)[C@H](CO)NC(=O)CNC1=O` [SEQ ID NO: 32, reference compound], the level at 2 h in data set [1] (setting [2]) stood at 2.17 ng/mL. Also, the level at 6 h in data set [1] (setting [3]) worked out at 2.91 ng/mL. Besides, in the data set with cGMP, the “Plasma concentration of cGMP, 2 hr” value was 8.7 pmol/mL and the “Plasma concentration of cGMP, 6 hr” value worked out at 9.5 pmol/mL.

In data set [1] (sc, 1 mg/kg), `CC[C@H](C)[C@@H]1NC(=O)[C@H](CCCNC(=N)N)NC(=O)[C@H](CC(=O)O)NC(=O)[C@H](CC(C)C)NC(=O)[C@H](CCCCN)NC(=O)[C@H](CC(C)C)NC(=O)CNC(=O)[C@H](Cc2ccccc2)NC(=O)[C@@H](NC(=O)CNC(=O)[C@H](CCCCN)NC(=O)[C@H](CO)NC(=O)[C@H](CC(C)C)NC(=O)CNC(=O)[C@H](CCN)NC(=O)[C@H](CCN)NC(=O)COCCOCCNC(=O)COCCOCCNC(=O)COCCOCCNC(=O)CCCCCCCCCCCCCCCCC(=O)O)CSSC[C@@H](C(=O)O)NC(=O)CNC(=O)[C@H](CC(C)C)NC(=O)CNC(=O)[C@H](CO)NC(=O)[C@H](CCC(N)=O)NC(=O)[C@H](CO)NC(=O)CNC1=O` [SEQ ID NO: 33] ({C18 diacid-AEEA-AEEA-AEEA}-[Dab][Dab]GLSKGCFGLKLDRIGSQSGLGC-OH; disulfide 8-24; C-terminus assumed) returned a level at 2 h of 75.9 ng/mL and a level at 6 h of 68.2 ng/mL. Further, in the data set with cGMP, the “Plasma concentration of cGMP, 2 hr” value is recorded as 25.91** pmol/mL and the “Plasma concentration of cGMP, 6 hr” value was 31.61* pmol/mL.

In data set [1] (sc, 1 mg/kg), `CCCCCCCCCCCCCCCC(=O)NCCCC(=O)NCCCC(=O)N[C@@H](CCN)C(=O)N[C@@H](CCN)C(=O)NCC(=O)N[C@@H](CC(C)C)C(=O)N[C@@H](CO)C(=O)N[C@@H](CCCCN)C(=O)NCC(=O)N[C@H]1CSSC[C@@H](C(=O)O)NC(=O)CNC(=O)[C@H](CC(C)C)NC(=O)CNC(=O)[C@H](CO)NC(=O)[C@H](CCC(N)=O)NC(=O)[C@H](CO)NC(=O)CNC(=O)[C@H]([C@@H](C)CC)NC(=O)[C@H](CCCNC(=N)N)NC(=O)[C@H](CC(=O)O)NC(=O)[C@H](CC(C)C)NC(=O)[C@H](CCCCN)NC(=O)[C@H](CC(C)C)NC(=O)CNC(=O)[C@H](Cc2ccccc2)NC1=O` [SEQ ID NO: 37] ({Palmitoyl-GABA-GABA}-[Dab][Dab]GLSKGCFGLKLDRIGSQSGLGC-OH; disulfide 8-24; C-terminus assumed) gave a level at 2 h of 11.9 ng/mL and a level at 6 h of 5.77 ng/mL. For the same molecule, in the data set on cGMP, the “Plasma concentration of cGMP, 2 hr” value was 39.77* pmol/mL and the “Plasma concentration of cGMP, 6 hr” value is 22.71** pmol/mL.

Consider `CC[C@H](C)[C@@H]1NC(=O)[C@H](CCCNC(=N)N)NC(=O)[C@H](CC(=O)O)NC(=O)[C@H](CC(C)C)NC(=O)[C@H](CCCCN)NC(=O)[C@H](CC(C)C)NC(=O)CNC(=O)[C@H](Cc2ccccc2)NC(=O)[C@@H](NC(=O)CNC(=O)[C@H](CCCCN)NC(=O)[C@H](CO)NC(=O)[C@H](CC(C)C)NC(=O)CNC(=O)[C@H](CCN)NC(=O)[C@H](CCN)NC(=O)COCCOCCNC(=O)COCCOCCNC(=O)CCCCCCCCCCCCCCCCC(=O)O)CSSC[C@@H](C(=O)O)NC(=O)CNC(=O)[C@H](CC(C)C)NC(=O)CNC(=O)[C@H](CO)NC(=O)[C@H](CCC(N)=O)NC(=O)[C@H](CO)NC(=O)CNC1=O` [SEQ ID NO: 34] ({C18 diacid-AEEA-AEEA}-[Dab][Dab]GLSKGCFGLKLDRIGSQSGLGC-OH; disulfide 8-24; C-terminus assumed), for which, in data set [1] (sc, 1 mg/kg), the level at 2 h turned out to be 75.5 ng/mL and the level at 6 h amounted to 41 ng/mL. In addition, in the data set with cGMP, the “Plasma concentration of cGMP, 2 hr” value is reported as 15.78* pmol/mL and the “Plasma concentration of cGMP, 6 hr” value turned out to be 33.6 pmol/mL.

With `CCCCCCCCCCCCCCCC(=O)N[C@@H](CCC(=O)O)C(=O)NCCOCCOCC(=O)NCCOCCOCC(=O)N[C@@H](CCN)C(=O)N[C@@H](CCN)C(=O)NCC(=O)N[C@@H](CC(C)C)C(=O)N[C@@H](CO)C(=O)N[C@@H](CCCCN)C(=O)NCC(=O)N[C@H]1CSSC[C@@H](C(=O)O)NC(=O)CNC(=O)[C@H](CC(C)C)NC(=O)CNC(=O)[C@H](CO)NC(=O)[C@H](CCC(N)=O)NC(=O)[C@H](CO)NC(=O)CNC(=O)[C@H]([C@@H](C)CC)NC(=O)[C@H](CCCNC(=N)N)NC(=O)[C@H](CC(=O)O)NC(=O)[C@H](CC(C)C)NC(=O)[C@H](CCCCN)NC(=O)[C@H](CC(C)C)NC(=O)CNC(=O)[C@H](Cc2ccccc2)NC1=O` [SEQ ID NO: 38] (Palmitoyl-E[AEEA][AEEA][Dab][Dab]GLSKGCFGLKLDRIGSQSGLGC-OH; disulfide 11-27; C-terminus assumed), in data set [1] (sc, 1 mg/kg), the level at 2 h came out at 31.7 ng/mL and the level at 6 h came out at 25.9 ng/mL. In the data set on cGMP, the “Plasma concentration of cGMP, 2 hr” value was 74.69* pmol/mL and the “Plasma concentration of cGMP, 6 hr” value is 38.95*** pmol/mL.

In the case of `CCCCCCCCCCCCCCCC(=O)NCCOCCOCC(=O)NCCOCCOCC(=O)NCCOCCOCC(=O)N[C@@H](CN)C(=O)N[C@@H](CN)C(=O)N[C@@H](CN)C(=O)NCC(=O)N[C@@H](CC(C)C)C(=O)N[C@@H](CO)C(=O)N[C@@H](CCCCN)C(=O)NCC(=O)N[C@H]1CSSC[C@@H](C(=O)O)NC(=O)CNC(=O)[C@H](CC(C)C)NC(=O)CNC(=O)[C@H](CO)NC(=O)[C@H](CCC(N)=O)NC(=O)[C@H](CO)NC(=O)CNC(=O)[C@H]([C@@H](C)CC)NC(=O)[C@H](CCCNC(=N)N)NC(=O)[C@H](CC(=O)O)NC(=O)[C@H](CC(C)C)NC(=O)[C@H](CCCCN)NC(=O)[C@H](CC(C)C)NC(=O)CNC(=O)[C@H](Cc2ccccc2)NC1=O` [SEQ ID NO: 43] ({Palmitoyl-AEEA-AEEA-AEEA}-[Dap][Dap][Dap]GLSKGCFGLKLDRIGSQSGLGC-OH; disulfide 9-25; C-terminus assumed), in data set [1] (sc, 1 mg/kg), the level at 2 h was determined as 29.2 ng/mL and the level at 6 h stood at 16.8 ng/mL. In the data set on cGMP, the “Plasma concentration of cGMP, 2 hr” value is reported as 114.85**** pmol/mL and the “Plasma concentration of cGMP, 6 hr” value is recorded as 93.39**** pmol/mL.

For `CC[C@H](C)[C@@H]1NC(=O)[C@H](CCCNC(=N)N)NC(=O)[C@H](CC(=O)O)NC(=O)[C@H](CCSC)NC(=O)[C@H](CCCCN)NC(=O)[C@H](CCCNC(=N)N)NC(=O)CNC(=O)[C@H](Cc2ccccc2)NC(=O)[C@@H](NC(=O)CNC(=O)[C@H](CO)NC(=O)CNC(=O)[C@H](CCC(N)=O)NC(=O)[C@@H](NC(=O)[C@H](CCSC)NC(=O)[C@H](CCCCN)NC(=O)[C@@H]2CCCN2C(=O)[C@@H](N)CO)C(C)C)CSSC[C@@H](C(=O)N[C@@H](CCCCN)C(=O)N[C@H](C(=O)N[C@@H](CC(C)C)C(=O)N[C@@H](CCCNC(=N)N)C(=O)N[C@@H](CCCNC(=N)N)C(=O)N[C@@H](Cc2c[nH]cn2)C(=O)O)C(C)C)NC(=O)CNC(=O)[C@H](CC(C)C)NC(=O)CNC(=O)[C@H](CO)NC(=O)[C@H](CO)NC(=O)[C@H](CO)NC(=O)[C@H](CO)NC1=O` [SEQ ID NO: 48, reference compound], the level at 2 h in data set [1] (setting [2]) was determined as 23.3 ng/mL. The level at 6 h in data set [1] (setting [3]) is 30.6 ng/mL. Further, in the data set on cGMP, the “Plasma concentration of cGMP, 2 hr” value is reported as 10.57 pmol/mL and the “Plasma concentration of cGMP, 6 hr” value amounted to 8.48 pmol/mL.

As to `CCCCCCCCCCCCCCCC(=O)NCCCC(=O)NCCCC(=O)NCCCC(=O)N[C@@H](CCN)C(=O)N[C@@H](CCN)C(=O)NCC(=O)N[C@@H](CC(C)C)C(=O)N[C@@H](CO)C(=O)N[C@@H](CCCCN)C(=O)NCC(=O)N[C@H]1CSSC[C@@H](C(=O)O)NC(=O)CNC(=O)[C@H](CC(C)C)NC(=O)CNC(=O)[C@H](CO)NC(=O)[C@H](CCC(N)=O)NC(=O)[C@H](CO)NC(=O)CNC(=O)[C@H]([C@@H](C)CC)NC(=O)[C@H](CCCNC(=N)N)NC(=O)[C@H](CC(=O)O)NC(=O)[C@H](CC(C)C)NC(=O)[C@H](CCCCN)NC(=O)[C@H](CC(C)C)NC(=O)CNC(=O)[C@H](Cc2ccccc2)NC1=O` [SEQ ID NO: 36] ({Palmitoyl-GABA-GABA-GABA}-[Dab][Dab]GLSKGCFGLKLDRIGSQSGLGC-OH; disulfide 8-24; C-terminus assumed), in data set [1] (sc, 1 mg/kg), the level at 2 h was 7.57 ng/mL and the level at 6 h is 2.57 ng/mL. In addition, in the data set on cGMP, the “Plasma concentration of cGMP, 2 hr” value is 54.61*** pmol/mL and the “Plasma concentration of cGMP, 6 hr” value is recorded as 41.75** pmol/mL.

Take `CC[C@H](C)[C@@H]1NC(=O)[C@H](CCCNC(=N)N)NC(=O)[C@H](CC(=O)O)NC(=O)[C@H](CC(C)C)NC(=O)[C@H](CCCCN)NC(=O)[C@H](CC(C)C)NC(=O)CNC(=O)[C@H](Cc2ccccc2)NC(=O)[C@@H](NC(=O)CNC(=O)[C@H](CCCCN)NC(=O)[C@H](CO)NC(=O)[C@H](CC(C)C)NC(=O)CNC(=O)[C@H](CN)NC(=O)[C@H](CN)NC(=O)COCCOCCNC(=O)COCCOCCNC(=O)COCCOCCNC(=O)CCCCCCCCCCCCCCCCC(=O)O)CSSC[C@@H](C(=O)O)NC(=O)CNC(=O)[C@H](CC(C)C)NC(=O)CNC(=O)[C@H](CO)NC(=O)[C@H](CCC(N)=O)NC(=O)[C@H](CO)NC(=O)CNC1=O` [SEQ ID NO: 39] ({C18 diacid-AEEA-AEEA-AEEA}-[Dap][Dap]GLSKGCFGLKLDRIGSQSGLGC-OH; disulfide 8-24; C-terminus assumed): in data set [1] (sc, 1 mg/kg), the level at 2 h was determined as 50.7 ng/mL and the level at 6 h was determined as 23.7 ng/mL. Also, in the data set on cGMP, the “Plasma concentration of cGMP, 2 hr” value came out at 13.29 pmol/mL and the “Plasma concentration of cGMP, 6 hr” value is listed as 43.60 pmol/mL.
